Experimental data: patent publication US12479847B2 (DANA-FARBER CANCER INSTITUTE, INC., priority 2019, dated 2025)

Experiments:
Test in all cases: KINOMEscan (ScanMAX) kinase profiling
Type in all cases: binding
panel of 468 kinases [1] = molecular target: T1, panel of 468 kinases (Homo sapiens, UniProt P08631); settings: HCK; 1 μM; read-out: % control
T1 construct: purchased KINOMEscan (ScanMAX) service

panel of 468 kinases [2] = molecular target: T2, panel of 468 kinases (Homo sapiens, UniProt P10721, A829P); settings: KIT(A829P); 1 μM; read-out: % control
T2 construct: purchased KINOMEscan (ScanMAX) service

panel of 468 kinases [3] = molecular target: T3, panel of 468 kinases (Homo sapiens, UniProt P29323); settings: EPHB2; 1 μM; read-out: % control
T3 construct: purchased KINOMEscan (ScanMAX) service
T3 sequence (P29323 19-1055): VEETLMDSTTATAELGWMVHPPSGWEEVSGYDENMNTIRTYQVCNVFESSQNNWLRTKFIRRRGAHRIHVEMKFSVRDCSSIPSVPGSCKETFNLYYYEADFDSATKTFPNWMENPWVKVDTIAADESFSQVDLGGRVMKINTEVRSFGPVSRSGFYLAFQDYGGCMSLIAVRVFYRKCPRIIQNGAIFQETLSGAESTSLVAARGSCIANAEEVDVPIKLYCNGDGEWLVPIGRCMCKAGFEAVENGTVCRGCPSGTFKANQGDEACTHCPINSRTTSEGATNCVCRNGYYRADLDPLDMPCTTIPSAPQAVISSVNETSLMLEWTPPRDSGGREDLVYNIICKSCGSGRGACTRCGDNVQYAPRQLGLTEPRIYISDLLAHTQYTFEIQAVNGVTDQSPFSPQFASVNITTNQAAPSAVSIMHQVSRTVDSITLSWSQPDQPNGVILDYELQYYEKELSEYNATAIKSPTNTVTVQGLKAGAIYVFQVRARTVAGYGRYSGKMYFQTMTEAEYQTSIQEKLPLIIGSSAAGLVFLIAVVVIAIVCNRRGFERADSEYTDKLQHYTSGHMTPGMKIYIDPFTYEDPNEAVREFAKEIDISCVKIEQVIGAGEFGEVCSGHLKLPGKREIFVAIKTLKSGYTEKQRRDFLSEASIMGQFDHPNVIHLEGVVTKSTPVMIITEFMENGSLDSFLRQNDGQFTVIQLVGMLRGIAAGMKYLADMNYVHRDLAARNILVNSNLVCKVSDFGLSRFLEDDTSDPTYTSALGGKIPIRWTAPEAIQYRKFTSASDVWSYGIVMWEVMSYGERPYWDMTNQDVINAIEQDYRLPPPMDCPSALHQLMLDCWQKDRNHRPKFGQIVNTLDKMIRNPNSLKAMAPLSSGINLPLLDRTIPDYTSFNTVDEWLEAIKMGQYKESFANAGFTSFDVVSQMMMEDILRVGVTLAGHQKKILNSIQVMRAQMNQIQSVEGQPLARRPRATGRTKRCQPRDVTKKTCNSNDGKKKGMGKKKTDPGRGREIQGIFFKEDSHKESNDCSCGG

panel of 468 kinases [4] = molecular target: T4, panel of 468 kinases (Homo sapiens, UniProt P32298); settings: GRK4; 1 μM; read-out: % control
T4 construct: purchased KINOMEscan (ScanMAX) service

panel of 468 kinases [5] = molecular target: T5, panel of 468 kinases (Homo sapiens, UniProt P41240); settings: CSK; 1 μM; read-out: % control
T5 construct: purchased KINOMEscan (ScanMAX) service

panel of 468 kinases [6] = molecular target: T6, panel of 468 kinases (Homo sapiens, UniProt P53355); settings: DAPK1; 1 μM; read-out: % control
T6 construct: purchased KINOMEscan (ScanMAX) service

panel of 468 kinases [7] = molecular target: T7, panel of 468 kinases (Homo sapiens, UniProt Q8NG66); settings: NEK11; 1 μM; read-out: % control
T7 construct: purchased KINOMEscan (ScanMAX) service
T7 sequence (Q8NG66 1-645): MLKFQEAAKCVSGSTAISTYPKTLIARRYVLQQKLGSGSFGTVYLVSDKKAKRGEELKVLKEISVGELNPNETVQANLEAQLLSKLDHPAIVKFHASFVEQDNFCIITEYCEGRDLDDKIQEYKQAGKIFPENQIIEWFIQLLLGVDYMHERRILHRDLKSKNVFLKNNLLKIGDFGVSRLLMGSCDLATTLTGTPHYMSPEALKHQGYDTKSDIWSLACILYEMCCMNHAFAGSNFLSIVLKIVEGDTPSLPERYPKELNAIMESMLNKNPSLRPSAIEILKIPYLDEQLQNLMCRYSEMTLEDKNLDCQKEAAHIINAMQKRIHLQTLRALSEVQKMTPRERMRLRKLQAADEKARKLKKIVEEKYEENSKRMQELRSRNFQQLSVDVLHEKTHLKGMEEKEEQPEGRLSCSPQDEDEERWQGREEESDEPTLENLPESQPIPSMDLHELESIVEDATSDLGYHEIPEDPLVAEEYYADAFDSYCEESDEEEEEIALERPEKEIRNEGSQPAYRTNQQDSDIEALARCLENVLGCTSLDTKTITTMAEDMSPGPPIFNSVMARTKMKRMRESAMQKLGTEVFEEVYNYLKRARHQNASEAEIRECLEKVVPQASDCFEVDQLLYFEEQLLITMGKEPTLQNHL

panel of 468 kinases [8] = molecular target: T8, panel of 468 kinases (Homo sapiens, UniProt Q96BR1); settings: SGK3; 1 μM; read-out: % control
T8 construct: purchased KINOMEscan (ScanMAX) service
T8 sequence (Q96BR1 1-496): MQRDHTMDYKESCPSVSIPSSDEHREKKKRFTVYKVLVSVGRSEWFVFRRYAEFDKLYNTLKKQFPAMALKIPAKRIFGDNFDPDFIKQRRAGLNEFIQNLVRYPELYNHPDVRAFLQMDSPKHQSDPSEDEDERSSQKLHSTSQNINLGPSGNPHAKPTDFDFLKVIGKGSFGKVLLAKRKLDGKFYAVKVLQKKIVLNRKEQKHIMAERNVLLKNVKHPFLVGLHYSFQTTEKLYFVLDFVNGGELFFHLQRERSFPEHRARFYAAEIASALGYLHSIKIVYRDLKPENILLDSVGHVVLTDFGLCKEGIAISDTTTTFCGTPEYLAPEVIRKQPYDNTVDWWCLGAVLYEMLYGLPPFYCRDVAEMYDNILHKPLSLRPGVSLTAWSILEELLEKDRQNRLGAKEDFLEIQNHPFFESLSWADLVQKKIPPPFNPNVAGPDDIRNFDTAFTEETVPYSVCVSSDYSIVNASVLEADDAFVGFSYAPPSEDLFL

T6 sequence (P53355 whole entry): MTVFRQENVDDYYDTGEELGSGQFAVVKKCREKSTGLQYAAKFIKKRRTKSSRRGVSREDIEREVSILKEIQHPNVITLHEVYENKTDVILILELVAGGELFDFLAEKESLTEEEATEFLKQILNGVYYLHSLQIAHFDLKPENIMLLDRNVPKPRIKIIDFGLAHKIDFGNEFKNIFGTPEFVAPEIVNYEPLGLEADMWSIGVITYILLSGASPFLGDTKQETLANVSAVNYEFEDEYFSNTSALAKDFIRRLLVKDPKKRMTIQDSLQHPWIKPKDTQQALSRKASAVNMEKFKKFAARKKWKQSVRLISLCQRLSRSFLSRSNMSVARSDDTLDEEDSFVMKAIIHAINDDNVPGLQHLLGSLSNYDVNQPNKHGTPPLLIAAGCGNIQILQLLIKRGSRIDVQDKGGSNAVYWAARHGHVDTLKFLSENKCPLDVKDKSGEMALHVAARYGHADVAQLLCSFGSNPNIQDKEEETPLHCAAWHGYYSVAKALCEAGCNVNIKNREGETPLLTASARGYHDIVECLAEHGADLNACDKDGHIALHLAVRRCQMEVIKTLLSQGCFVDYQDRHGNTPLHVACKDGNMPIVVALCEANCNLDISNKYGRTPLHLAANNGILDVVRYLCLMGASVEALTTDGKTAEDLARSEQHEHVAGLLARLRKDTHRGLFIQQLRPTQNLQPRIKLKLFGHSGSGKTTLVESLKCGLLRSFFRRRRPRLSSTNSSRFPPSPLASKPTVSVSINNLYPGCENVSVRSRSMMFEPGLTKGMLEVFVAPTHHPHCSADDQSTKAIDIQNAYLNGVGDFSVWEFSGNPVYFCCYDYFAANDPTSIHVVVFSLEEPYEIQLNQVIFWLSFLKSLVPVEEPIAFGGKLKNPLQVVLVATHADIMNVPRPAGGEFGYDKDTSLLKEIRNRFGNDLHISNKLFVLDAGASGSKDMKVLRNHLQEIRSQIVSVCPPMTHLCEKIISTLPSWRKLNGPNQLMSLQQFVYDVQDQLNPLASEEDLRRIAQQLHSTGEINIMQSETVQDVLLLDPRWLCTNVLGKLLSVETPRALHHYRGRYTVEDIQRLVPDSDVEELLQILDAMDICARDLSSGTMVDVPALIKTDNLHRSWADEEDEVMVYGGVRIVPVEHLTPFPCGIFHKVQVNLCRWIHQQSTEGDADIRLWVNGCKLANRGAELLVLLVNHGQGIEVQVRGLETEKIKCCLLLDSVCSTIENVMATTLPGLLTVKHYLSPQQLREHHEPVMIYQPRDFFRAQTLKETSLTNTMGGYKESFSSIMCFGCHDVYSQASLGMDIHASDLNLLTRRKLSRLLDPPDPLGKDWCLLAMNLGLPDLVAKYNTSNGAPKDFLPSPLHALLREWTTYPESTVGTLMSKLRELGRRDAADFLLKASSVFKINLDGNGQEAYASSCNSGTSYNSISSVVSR
T1 sequence (P08631 whole entry): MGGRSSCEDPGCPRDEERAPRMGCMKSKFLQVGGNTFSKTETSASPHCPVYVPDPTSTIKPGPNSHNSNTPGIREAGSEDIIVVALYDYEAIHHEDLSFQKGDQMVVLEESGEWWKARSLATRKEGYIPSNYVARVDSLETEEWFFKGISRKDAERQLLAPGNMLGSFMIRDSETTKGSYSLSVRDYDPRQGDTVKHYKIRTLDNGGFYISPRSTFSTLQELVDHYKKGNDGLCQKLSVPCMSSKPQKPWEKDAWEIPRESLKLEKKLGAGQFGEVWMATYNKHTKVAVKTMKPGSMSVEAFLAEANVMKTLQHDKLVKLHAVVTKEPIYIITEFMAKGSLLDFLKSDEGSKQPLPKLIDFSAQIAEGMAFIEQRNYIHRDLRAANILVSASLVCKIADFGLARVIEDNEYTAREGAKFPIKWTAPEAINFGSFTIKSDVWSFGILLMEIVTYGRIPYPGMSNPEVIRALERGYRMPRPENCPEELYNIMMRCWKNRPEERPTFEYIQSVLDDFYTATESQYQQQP
T4 sequence (P32298 whole entry): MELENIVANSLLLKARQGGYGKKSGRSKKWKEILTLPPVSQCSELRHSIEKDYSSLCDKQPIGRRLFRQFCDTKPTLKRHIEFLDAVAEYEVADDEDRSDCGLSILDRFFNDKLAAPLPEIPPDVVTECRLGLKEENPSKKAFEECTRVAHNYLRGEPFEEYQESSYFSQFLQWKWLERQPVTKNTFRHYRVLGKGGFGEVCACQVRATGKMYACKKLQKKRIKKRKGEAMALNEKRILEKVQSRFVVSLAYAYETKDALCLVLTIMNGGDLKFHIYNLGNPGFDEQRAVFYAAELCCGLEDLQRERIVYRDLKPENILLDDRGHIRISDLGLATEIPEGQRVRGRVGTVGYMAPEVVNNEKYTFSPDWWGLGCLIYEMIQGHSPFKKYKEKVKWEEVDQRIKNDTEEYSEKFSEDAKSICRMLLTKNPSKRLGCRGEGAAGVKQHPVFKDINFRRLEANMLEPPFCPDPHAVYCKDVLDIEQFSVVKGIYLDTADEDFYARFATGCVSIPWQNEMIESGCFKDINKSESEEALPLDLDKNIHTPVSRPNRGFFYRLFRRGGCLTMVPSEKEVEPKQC
T2 sequence (P10721 26-976 A829P): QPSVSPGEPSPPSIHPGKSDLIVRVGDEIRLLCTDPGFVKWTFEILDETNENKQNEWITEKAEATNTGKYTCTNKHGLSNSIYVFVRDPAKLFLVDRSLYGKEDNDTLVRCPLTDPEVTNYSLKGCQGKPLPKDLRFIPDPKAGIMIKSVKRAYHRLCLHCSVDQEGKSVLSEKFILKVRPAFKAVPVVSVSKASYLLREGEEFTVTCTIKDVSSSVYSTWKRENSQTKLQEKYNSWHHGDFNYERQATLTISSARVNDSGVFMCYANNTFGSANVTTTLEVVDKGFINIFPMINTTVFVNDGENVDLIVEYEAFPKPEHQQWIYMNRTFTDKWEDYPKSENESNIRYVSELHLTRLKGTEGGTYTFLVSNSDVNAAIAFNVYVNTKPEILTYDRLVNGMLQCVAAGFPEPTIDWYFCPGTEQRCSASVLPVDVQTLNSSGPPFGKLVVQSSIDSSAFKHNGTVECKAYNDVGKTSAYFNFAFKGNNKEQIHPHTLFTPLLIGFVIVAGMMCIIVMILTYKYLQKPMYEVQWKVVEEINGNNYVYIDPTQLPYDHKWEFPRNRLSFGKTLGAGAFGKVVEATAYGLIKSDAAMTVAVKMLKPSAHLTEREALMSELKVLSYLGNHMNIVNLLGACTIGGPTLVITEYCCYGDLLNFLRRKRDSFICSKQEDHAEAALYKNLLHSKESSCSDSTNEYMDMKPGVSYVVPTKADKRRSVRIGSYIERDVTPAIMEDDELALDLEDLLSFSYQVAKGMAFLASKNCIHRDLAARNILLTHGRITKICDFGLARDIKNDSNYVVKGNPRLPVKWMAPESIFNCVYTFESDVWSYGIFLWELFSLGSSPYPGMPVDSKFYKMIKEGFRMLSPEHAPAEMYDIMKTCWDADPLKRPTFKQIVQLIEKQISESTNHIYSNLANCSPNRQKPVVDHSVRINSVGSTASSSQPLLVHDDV
T5 sequence (P41240 whole entry): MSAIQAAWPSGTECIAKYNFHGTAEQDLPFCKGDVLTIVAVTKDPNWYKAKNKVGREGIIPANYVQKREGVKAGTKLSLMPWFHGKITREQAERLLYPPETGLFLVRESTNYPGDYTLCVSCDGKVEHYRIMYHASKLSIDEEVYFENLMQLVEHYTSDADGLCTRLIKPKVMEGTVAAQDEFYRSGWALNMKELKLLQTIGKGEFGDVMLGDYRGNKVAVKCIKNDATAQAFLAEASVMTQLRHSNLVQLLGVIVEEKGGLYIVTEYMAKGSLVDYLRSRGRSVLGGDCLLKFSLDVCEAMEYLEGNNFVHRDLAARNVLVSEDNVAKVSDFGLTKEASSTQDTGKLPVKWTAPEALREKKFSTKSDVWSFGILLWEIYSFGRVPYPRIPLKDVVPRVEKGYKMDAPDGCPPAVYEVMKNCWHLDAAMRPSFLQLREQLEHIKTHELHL

| Compound | remaining binding at 1 µM (panel of 468 kinases [1]) [%] | remaining binding at 1 µM (panel of 468 kinases [2]) [%] | remaining binding at 1 µM (panel of 468 kinases [3]) [%] | remaining binding at 1 µM (panel of 468 kinases [4]) [%] | remaining binding at 1 µM (panel of 468 kinases [5]) [%] | remaining binding at 1 µM (panel of 468 kinases [6]) [%] | remaining binding at 1 µM (panel of 468 kinases [7]) [%] | remaining binding at 1 µM (panel of 468 kinases [8]) [%] |
| --- | --- | --- | --- | --- | --- | --- | --- | --- |
| CNc1nc(Nc2ccc(S(=O)(=O)N3CCC(N4CCOCC4)CC3)cc2OC)nc2[nH]cc(Cl)c12 [Compound 12, 5-chloro-N2-(2-methoxy-4-((4-morpholinopiperidin-1-yl)sulfonyl)phenyl)-N4-methyl-7H-pyrrolo[2,3-d]pyrimidine-2,4-diamine] | 98 | 76 | 100 | 100 | 100 | 43 | 96 | 76 |
| CNc1nc(Nc2ccc(C(=O)N3CCC(N4CCOCC4)CC3)c3c2OCO3)nc2[nH]cc(Cl)c12 [Compound 75, (7-((5-chloro-4-(methylamino)-7H-pyrrolo[2,3-d]pyrimidin-2-yl)amino)benzo[d][1,3]dioxol-4-yl)(4-morpholinopiperidin-1-yl)methanone] | 100 | 50 | 100 | 41 | 100 | 14 | 100 | 32 |
| CNc1nc(Nc2ccc(P3(=O)CCN(C4CCOCC4)CC3)cc2OC)nc2[nH]cc(Cl)c12 [Compound 77, 4-(4-((5-chloro-4-(methylamino)-7H-pyrrolo[2,3-d]pyrimidin-2-yl)amino)-3-methoxyphenyl)-1-(tetrahydro-2H-pyran-4-yl)-1,4-azaphosphinane 4-oxide] | 100 | 78 | 100 | 95 | 100 | 8.3 | 100 | 78 |
